Experimental data: US20240246972A1, “AZAINDOLE ROCK INHIBITORS” (priority 2022, published 2024)
In brackets after ≈: the same amount, converted by molar mass.

What was measured:
ROCK1 = ROCK1 (Homo sapiens (Human), UniProt Q13464); assay: ROCK1 inhibition assay (HotSpot kit, 33P-ATP); format: biochemical; settings: 10 μM ATP
ROCK2 = ROCK2 (Homo sapiens (Human), UniProt O75116); assay: ROCK2 inhibition assay (HotSpot kit, 33P-ATP); format: biochemical; settings: 10 μM ATP
PRKX = PRKX (Homo sapiens (Human), UniProt P51817); assay: PRKX inhibition assay (HotSpot kit, 33P-ATP); format: biochemical; settings: Table 2B; 10 μM ATP; Compound 1 is geometric mean of multiple experiments
Procedure: (§1) Compounds as a powder were dissolved in dimethyl sulfoxide to make a 10 mM stock. […] The HotSpot kit employing ^33P-ATP was used with reactions conducted at 10 μM ATP for each tested enzyme. The percent activity relative to DMSO controls for each concentration was then fitted to a curve using GraphPad Prism to determine the IC50. […] Each experiment was run in the same lab with this procedure.

PKA = PKA (Homo sapiens (Human), UniProt P17612); assay: PKA inhibition assay (HotSpot kit, 33P-ATP); format: biochemical; settings: Table 2B; 10 μM ATP; Compound 1 is geometric mean of multiple experiments
Procedure: as §1

P-gp (MDR1) [1] = assay: MDCK-MDR1 efflux assay, Experimental Procedure 1; format: in vitro ADME; settings: dog, Table 3A, pH 7.4
Procedure: MDCK-MDR1 cells grown in tissue culture flasks were trypsinized, suspended in medium, and the suspensions were applied to wells of a Millipore 96 well plate. The cells were allowed to grow and differentiate for five days, feeding at 2-day intervals. For Apical to Basolateral (A→B) permeability, the test article was added to the apical (A) side and amount of permeation was determined on the basolateral (B) side; for Basolateral to Apical (B→A) permeability, the test article was added to the B side and the amount of permeation was determined on the A side. […] Following centrifugation, the supernatant for donor and receiver side samples were analyzed by LC-MS/MS. Data was expressed as permeability (Papp):Papp=(dQ/dt)/(C0A) where dQ/dt is rate of permeation, C0 is initial concentration of test article, and A is the area of monolayer. In bidirectional permeability studies, the Efflux Ratio (Re) was calculated: [formula]

P-gp (MDR1) [2] = assay: MDCK-MDR1 efflux assay, Experimental Procedure 2; format: in vitro ADME; settings: dog, Table 3B, pH 7.4
[3] = Kinetic solubility in PBS pH 7.4; format: physicochemical; settings: aqueous buffer, kinetic from dmso stock, PBS pH 7.4, 25° C.
Procedure: The assay was performed in duplicate.

[4] = 24 hour mouse pharmacokinetics; format: in vivo, B6SJLF1/J mice; settings: for AUC(0-inf) / AUC(0-t) / Cmax / half-life / Tmax: B6SJLF1/J, plasma
Procedure: Groups 2, 3, 4, 6, and 8: Test article was dissolved in a minimal amount of DMSO (Groups 2, 4, 6, 8: 40-50 μL, Group 3: 100 μL), 0.5% methylcellulose was added to final volume, then solution was sonicated for 2 minutes.
Group 7: Test article was dissolved in 100 μL DMSO, saline was added to final volume, then solution was sonicated for 2 minutes.
Groups 1, 5: The test article was administered as a single dose via slow bolus intravenous administration into a lateral tail vein, with a 27G needle.
Groups 2, 4, 6, 7, 8: The test article was administered as a single dose directly to the stomach by oral gavage.
Group 3: The test article was administered as a single dose in two parts with an approximate 1-2-minute rest between due to volume administered.
Approximately 150 μL of blood was collected by tail nick for the first time point and then the maximal volume by cardiac stick for the second, terminal time point in each mouse. The plasma was spun and separated within 30 minutes of collection and stored frozen at −20° C. until shipment.
Prior to the terminal blood collection, CSF was collected. […] The resulting data is shown in Tables 13, 14, 15, 16 and 17 below.

[5] = 24 hour rat pharmacokinetics; format: in vivo, Sprague-dawley rats; settings: male
[6] = mouse, in vivo, po, 20 mg/kg
[7] = Table 2B, Compound 1 is geometric mean of multiple experiments
[8] = Sprague-Dawley, in vivo, IV 3 mg/kg
[9] = Sprague-Dawley, in vivo, PO 10 mg/kg

Chain of ROCK1 (Q13464 whole entry): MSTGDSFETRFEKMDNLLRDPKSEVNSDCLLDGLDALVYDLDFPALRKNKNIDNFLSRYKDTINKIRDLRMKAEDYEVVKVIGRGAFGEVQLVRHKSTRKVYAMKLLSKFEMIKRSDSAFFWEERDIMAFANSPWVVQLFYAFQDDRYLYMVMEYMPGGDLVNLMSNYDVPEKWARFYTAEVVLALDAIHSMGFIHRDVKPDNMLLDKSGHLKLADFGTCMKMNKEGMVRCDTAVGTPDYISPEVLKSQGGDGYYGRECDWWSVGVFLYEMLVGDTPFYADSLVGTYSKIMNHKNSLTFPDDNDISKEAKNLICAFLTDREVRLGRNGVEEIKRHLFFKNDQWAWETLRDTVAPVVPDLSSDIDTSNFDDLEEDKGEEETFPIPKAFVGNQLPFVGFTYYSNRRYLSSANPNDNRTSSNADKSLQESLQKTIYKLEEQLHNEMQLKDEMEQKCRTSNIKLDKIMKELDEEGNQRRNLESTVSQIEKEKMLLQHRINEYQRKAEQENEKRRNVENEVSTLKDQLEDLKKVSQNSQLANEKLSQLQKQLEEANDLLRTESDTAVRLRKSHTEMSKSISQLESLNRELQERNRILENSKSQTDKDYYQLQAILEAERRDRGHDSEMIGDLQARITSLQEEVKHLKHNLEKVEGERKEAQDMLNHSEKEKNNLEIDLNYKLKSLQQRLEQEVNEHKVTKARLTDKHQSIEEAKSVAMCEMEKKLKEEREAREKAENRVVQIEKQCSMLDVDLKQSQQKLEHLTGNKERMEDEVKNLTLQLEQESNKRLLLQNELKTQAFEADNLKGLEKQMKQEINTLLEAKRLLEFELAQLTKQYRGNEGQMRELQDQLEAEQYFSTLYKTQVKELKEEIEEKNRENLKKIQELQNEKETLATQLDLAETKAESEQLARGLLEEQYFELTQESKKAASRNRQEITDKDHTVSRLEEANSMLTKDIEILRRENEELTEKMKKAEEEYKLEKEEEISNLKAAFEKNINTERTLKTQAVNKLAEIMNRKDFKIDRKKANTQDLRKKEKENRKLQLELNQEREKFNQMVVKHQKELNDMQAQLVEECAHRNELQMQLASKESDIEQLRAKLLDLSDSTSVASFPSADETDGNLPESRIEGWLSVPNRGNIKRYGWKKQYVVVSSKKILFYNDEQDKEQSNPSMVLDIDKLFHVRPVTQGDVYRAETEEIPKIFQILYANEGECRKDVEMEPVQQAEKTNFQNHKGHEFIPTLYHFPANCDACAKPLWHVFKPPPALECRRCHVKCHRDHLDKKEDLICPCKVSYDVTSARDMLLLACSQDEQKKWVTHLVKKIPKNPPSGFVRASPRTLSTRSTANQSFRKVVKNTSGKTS
Chain of ROCK2 (O75116 whole entry): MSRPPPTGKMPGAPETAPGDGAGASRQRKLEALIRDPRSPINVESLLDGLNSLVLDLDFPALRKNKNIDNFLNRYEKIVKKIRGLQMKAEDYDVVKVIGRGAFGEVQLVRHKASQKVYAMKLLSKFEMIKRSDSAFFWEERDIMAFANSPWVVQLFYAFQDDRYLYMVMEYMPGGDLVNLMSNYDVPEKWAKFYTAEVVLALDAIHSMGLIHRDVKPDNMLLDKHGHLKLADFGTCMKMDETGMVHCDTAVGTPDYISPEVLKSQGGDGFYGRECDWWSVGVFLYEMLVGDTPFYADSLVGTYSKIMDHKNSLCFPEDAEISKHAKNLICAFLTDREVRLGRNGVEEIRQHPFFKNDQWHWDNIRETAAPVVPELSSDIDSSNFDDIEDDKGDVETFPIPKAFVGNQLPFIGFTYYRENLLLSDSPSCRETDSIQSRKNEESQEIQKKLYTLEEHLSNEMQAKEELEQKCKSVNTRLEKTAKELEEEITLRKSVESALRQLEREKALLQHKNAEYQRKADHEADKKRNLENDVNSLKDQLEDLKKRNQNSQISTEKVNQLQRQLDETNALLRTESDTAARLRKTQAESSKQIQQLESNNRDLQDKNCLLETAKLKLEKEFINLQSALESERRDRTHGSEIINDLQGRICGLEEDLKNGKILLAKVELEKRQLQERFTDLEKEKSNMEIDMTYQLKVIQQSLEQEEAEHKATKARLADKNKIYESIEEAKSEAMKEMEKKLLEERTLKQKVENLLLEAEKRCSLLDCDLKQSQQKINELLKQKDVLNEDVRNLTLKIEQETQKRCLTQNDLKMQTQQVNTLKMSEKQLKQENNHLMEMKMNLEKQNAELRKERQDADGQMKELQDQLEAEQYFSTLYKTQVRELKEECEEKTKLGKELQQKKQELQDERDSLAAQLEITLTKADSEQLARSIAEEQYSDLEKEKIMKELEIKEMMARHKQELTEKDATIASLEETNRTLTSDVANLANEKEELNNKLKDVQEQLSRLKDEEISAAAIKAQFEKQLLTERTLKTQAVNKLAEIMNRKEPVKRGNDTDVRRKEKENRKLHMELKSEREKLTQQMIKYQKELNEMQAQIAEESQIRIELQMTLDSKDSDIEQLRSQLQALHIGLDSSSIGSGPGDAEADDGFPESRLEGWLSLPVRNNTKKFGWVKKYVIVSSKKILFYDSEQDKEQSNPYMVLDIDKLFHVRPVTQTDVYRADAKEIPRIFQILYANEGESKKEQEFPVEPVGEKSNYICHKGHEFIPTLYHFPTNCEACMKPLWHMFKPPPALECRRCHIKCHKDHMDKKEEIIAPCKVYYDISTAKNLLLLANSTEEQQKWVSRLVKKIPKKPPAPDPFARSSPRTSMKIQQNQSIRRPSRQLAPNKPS
Chain of PRKX (P51817 whole entry): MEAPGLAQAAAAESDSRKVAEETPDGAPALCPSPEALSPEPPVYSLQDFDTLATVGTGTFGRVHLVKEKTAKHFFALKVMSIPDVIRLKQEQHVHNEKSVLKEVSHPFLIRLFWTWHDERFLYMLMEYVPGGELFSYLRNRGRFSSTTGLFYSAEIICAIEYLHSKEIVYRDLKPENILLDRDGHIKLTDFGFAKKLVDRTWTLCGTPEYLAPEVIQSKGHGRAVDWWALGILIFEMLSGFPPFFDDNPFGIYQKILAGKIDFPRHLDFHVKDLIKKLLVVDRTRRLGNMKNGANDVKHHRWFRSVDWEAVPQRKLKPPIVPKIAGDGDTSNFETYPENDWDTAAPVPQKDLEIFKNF

`Cc1[nH]ncc1-c1ccc2cc(C(=O)NCc3c(Cl)cccc3OC3COC3)[nH]c2n1` [Comparator 3, N-(2-chloro-6-(oxetan-3-yloxy)benzyl)-6-(5-methyl-1H-pyrazol-4-yl)-1H-pyrrolo[2,3-b]pyridine-2-carboxamide, reference compound] gave an IC50 (ROCK1; Table 2A) of over 1000 nM, an IC50 (ROCK2; Table 2A) of 587 nM and an IC50 (PRKX) of 376 nM. The IC50 (PKA) was 1400 nM and the efflux ratio at 2 h (P-gp (MDR1) [1]) was 256.

For `COc1cccc(CNC(=O)c2cc3ccc(-c4cn[nH]c4)nc3[nH]2)c1` [Comparator 6, N-(3-methoxybenzyl)-6-(1H-pyrazol-4-yl)-1H-pyrrolo[2,3-b]pyridine-2-carboxamide, reference compound], the IC50 (ROCK1; [7]) was 10.2 nM, the IC50 (ROCK2; [7]) was 0.96 nM and the IC50 (PRKX) was 165 nM.

Work on `Cn1c(C(=O)NCc2ccccc2F)cc2ccc(-c3cn[nH]c3)nc21` [Compound 1, N-(2-fluorobenzyl)-1-methyl-6-(1H-pyrazol-4-yl)-1H-pyrrolo[2,3-b]pyridine-2-carboxamide] yielded an IC50 (ROCK1; Table 2A) of 16.4 nM, an IC50 (ROCK1; [7]) of 30.3 nM and an IC50 (ROCK2; Table 2A) of 2.3 nM. For the same molecule, the IC50 (ROCK2; [7]) was 2.7 nM, the IC50 (PRKX) was 31.4 nM and the IC50 (PKA) was 238 nM. The efflux ratio at 2 h (P-gp (MDR1) [1]) was 1.46, the efflux ratio at 2 h, 1 µM (P-gp (MDR1) [2]) was 0.8 and the solubility kinetic at 2 h [3] was 0.64 µM (≈ 0.224 µg/mL). It also gave an AUC(0-inf) ([4]; IV 3 mg/kg, male) of 10200 ng·h/mL, an AUC(0-t) ([4]; IV 3 mg/kg, male) of 10100 ng·h/mL and a Cmax ([4]; IV 3 mg/kg, male) of 12200 ng/mL. The half-life ([4]; IV 3 mg/kg, male) was 0.987 h, the AUC(0-t) ([4]; PO 10 mg/kg, female) was 5670 ng·h/mL and the Cmax ([4]; PO 10 mg/kg, female) was 1110 ng/mL. The Tmax ([4]; PO 10 mg/kg, female) was 1 h, the AUC(0-inf) ([4]; PO 10 mg/kg, male) was 5750 ng·h/mL and the AUC(0-t) ([4]; PO 10 mg/kg, male) was 5350 ng·h/mL. It also gave a Cmax ([4]; PO 10 mg/kg, male) of 1040 ng/mL, a Tmax ([4]; PO 10 mg/kg, male) of 1 h and a half-life ([4]; PO 10 mg/kg, male) of 2.72 h. It also gave an AUC(0-inf) ([4]; PO 100 mg/kg, male) of 46000 ng·h/mL, an AUC(0-t) ([4]; PO 100 mg/kg, male) of 44100 ng·h/mL and a Cmax ([4]; PO 100 mg/kg, male) of 4070 ng/mL. For the same molecule, the Tmax ([4]; PO 100 mg/kg, male) was 8 h, the half-life ([4]; PO 100 mg/kg, male) was 4.47 h and the AUC0-t/D ([4]; IV 3 mg/kg, male) was 3380 (h*ng/mL)/(mg/kg). For the same molecule, the Tlast ([4]; IV 3 mg/kg, male) was 8 h, the AUC0-t/D ([4]; PO 10 mg/kg, female) was 567 (h*ng/mL)/(mg/kg) and the Tlast ([4]; PO 10 mg/kg, female) was 24 h. For the same molecule, the AUC0-t/D ([4]; PO 10 mg/kg, male) was 535 (h*ng/mL)/(mg/kg), the Tlast ([4]; PO 10 mg/kg, male) was 12 h and the “Ratio to 10 mg/kg Dose Level, AUC0-t” value ([4]; PO 100 mg/kg vs 10 mg/kg, male) was 8.24. The “Ratio to 10 mg/kg Dose Level, AUC0-∞” value ([4]; PO 100 mg/kg vs 10 mg/kg, male) was 8.00, the “Ratio to 10 mg/kg Dose Level, Cmax” value ([4]; PO 100 mg/kg vs 10 mg/kg, male) was 3.91 and the AUC0-t/D ([4]; PO 100 mg/kg, male) was 441 (h*ng/mL)/(mg/kg). For the same molecule, the Tlast ([4]; PO 100 mg/kg, male) was 24 h, the AUC0-t/D ([5]; IV 3 mg/kg) was 1541 (h*ng/mL)/(mg/kg) and the Tlast ([5]; IV 3 mg/kg) was 24 h. For the same molecule, the AUC0-t/D ([5]; PO 10 mg/kg) was 261 (h*ng/mL)/(mg/kg), the Tlast ([5]; PO 10 mg/kg) was 24 h and the AUC(0-inf) [5, 8] was 4650 ng·h/mL. For the same molecule, the AUC(0-t) [5, 8] was 4620 ng·h/mL, the Cmax [5, 8] was 5540 ng/mL and the half-life [5, 8] was 5.33 h. For the same molecule, the AUC(0-t) [5, 9] was 2610 ng·h/mL, the Cmax [5, 9] was 409 ng/mL and the Tmax [5, 9] was 2.67 h. The half-life [5, 9] was 3.67 h, the AUC(0-inf) ([5]; Sprague-Dawley, plasma, PO 10 mg/kg) was 2660 ng·h/mL and the “mortality and adverse events” value [6] was “no animals died or had adverse events”. For the same molecule, the “plasma level in 24 hours” value [6] was “below the detection limit”.

`Cc1[nH]ncc1-c1ccc2cc(C(=O)NCc3c(Cl)cccc3C3(O)CC3)[nH]c2n1` [Compound 6, N-(2-chloro-6-(1-hydroxycyclopropyl)benzyl)-6-(5-methyl-1H-pyrazol-4-yl)-1H-pyrrolo[2,3-b]pyridine-2-carboxamide] showed an efflux ratio at 2 h (P-gp (MDR1) [1]) of 133.

Molecule `O=C(NCc1ccccc1F)c1cc2ccc(-c3cn[nH]c3C(F)(F)F)nc2[nH]1` [Compound 11, N-[(2-Fluorophenyl)methyl]-6-[3-(trifluoromethyl)-2H-pyrazol-4-yl]-1H-pyrrolo[2,3-b]pyridine-2-carboxamide] has an IC50 (ROCK1; [7]) of over 1000 nM and an IC50 (ROCK2; [7]) of 1370 nM.

With `C[C@H]1O[C@@H](O[C@H]2[C@@H](O)C[C@H](O[C@H]3[C@@H](O)C[C@H](O[C@H]4CC[C@@]5(C)[C@H](CC[C@@H]6[C@@H]5C[C@@H](O)[C@]5(C)[C@@H](C7=CC(=O)OC7)CC[C@]65O)C4)O[C@@H]3C)O[C@@H]2C)C[C@H](O)[C@@H]1O` [Digoxin, reference compound] the efflux ratio at 2 h (P-gp (MDR1) [1]) was 28.4.

For `CC(=O)[C@H]1CC[C@H]2[C@@H]3CCC4=CC(=O)CC[C@]4(C)[C@H]3CC[C@]12C` [Progesterone, reference compound], the solubility kinetic at 2 h [3] was 13.3 µM (≈ 4.19 µg/mL).
